Among the data in patent publication US6660759B1, “4.5-diaryloxazole compounds with prostaglandin I2 (PGI2) agonistic activity” (Fujisawa Pharmaceutical Co. Ltd., priority 1999, dated 2003) are IC50 values, retold here.

In this test the test system is Human platelet aggregation induced by ADP (platelet rich plasma). The test is described as follows: Inhibition of human platelet aggregation induced by ADP. The class given is cell-based. The following applies: human PRP; aggregation induced by ADP at final concentration of 2.5 μM; 37° C. The method, then: Inhibition of Human Platelet Aggregation Induced by ADP
Human blood was obtained from healthy volunteers and mixed with 1/10 volume of 3.8% sodium citrate, pH 7.4. The citrate blood was centrifuged at 150×g for 10 minutes and the platelet rich plasma (PRP) was removed. The remaining blood was centrifuged for a further 10 minutes at 1500×g to prepare the platelet poor plasma (PPP), which was used as a reference for platelet aggregation. Aggregation studies were carried out using HEMATRACER 801 (NBS, Japan), a 8 channel aggregometer. The test compound solution (25 μl) and the PRP (225 μl) were mixed and stirred at 1000 rpm at 37° C. for 2 minutes. Aggregation was induced by ADP solution at the final concentration of 2.5 μM.

`CCOC(=O)COc1cccc(CN2C[C@H](O)C[C@@H]2c2nc(-c3ccccc3)c(-c3ccccc3)o2)c1` [(1)]: the IC50 (usually the concentration needed to halve the response being measured) is < 100 nM.
